For data set [1], the system named is HBV. Description: Effect on intrahepatic HBV DNA levels in HepG2.2.15 cells (EC50). Conditions: Hepatitis B virus, 144 h, 6 days, intrahepatic HBV DNA by qPCR, read-out: Anti-HBV DNA (EC50). Type of data set: cell-based. The method, then: HepG2.2.15 cells were treated with compounds, at various concentrations in 10% FCS containing medium, at 37° C. for three days. After that the medium was removed and fresh medium containing the compound was added to the cells for another 3 days. After 6 days of treatment, intrahepatic HBV DNA from cell lysates were isolated. Then qPCR reaction of DNA was performed to measure total HBV DNA levels using specific primer set. The fifty-percent effective concentrations (EC50) for HBV DNA inhibition, relative to no drug controls, was determined using nonlinear fitting curve model. EC50 ranges for HBV DNA inhibition were as follows: A>0.3 μM, B=0.05-0.3 μM, C<0.05 μM (Table B).
(In qPCR the cycle at which signal appears reflects the starting amount.)

A short description of data set [2]: Cytotoxicity (MTT) in HepG2.2.15 cells. Type of data set: cell-based. Conditions: human, 6 days treatment, read-out: HepG2.1.15 cytotoxicity (CC50). As for the experimental part:
HepG2.2.15 cells were seeded onto 96-well culture plate and allowed to adhere for 24 hours. The cells were treated with various concentrations of the compounds for 6 days. After treatment, the culture media were discarded and further incubated with serum-free media containing […] of 3-(4,5-dimethylthiazol-2-yl)-2,5-diphenyl tetrazolium bromide (MTT) for 2 hour. The resulting formazan crystals were completely dissolved in dimethyl sulfoxide (DMSO), and then measured absorbance at 570 nm using microplate reader. The concentrations of compounds producing 50% cell death (CC50) were determined from a fitting of concentration-response curve (% cell viability versus concentration) to a four-parameter equation.

Data set [3] concerns the target T1, HBV core protein (Cp149) (Hepatitis B virus genotype D subtype ayw, UniProt P03146).
T1 construct: HBV core C-terminally truncated protein (HBV Cp149); made in house
Description: HBV capsid assembly by size exclusion chromatography (SEC). The conditions noted are these: 50 μM compound, 15 μM Cp149, 16 hours at 21° C. Type of data set: biochemical. Background: Size exclusion chromatography separates by hydrodynamic size, large species first.

In data set [4] the test system is HBV. In words: In vitro anti-HBV activity in HepG2.2.15 cell line (intracellular HBV DNA by qPCR at 1 μM). The conditions noted are these: Hepatitis B virus, 144 h; HepG2.2.15 cells, 1 μM compound, 6 days, intracellular HBV DNA as percentage compared to vehicle control (0.5% DMSO). Type of data set: cell-based. The gist of the method:
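Intracellular HBV DNA was quantified by qPCR and given as percent of vehicle (0.5% DMSO), grouped into letter ranges. Stably transfected HepG2.2.15 cells had 6 days of exposure to 1 μM compound, with medium and compound renewed after day 3.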

T1 sequence (P03146 1-149): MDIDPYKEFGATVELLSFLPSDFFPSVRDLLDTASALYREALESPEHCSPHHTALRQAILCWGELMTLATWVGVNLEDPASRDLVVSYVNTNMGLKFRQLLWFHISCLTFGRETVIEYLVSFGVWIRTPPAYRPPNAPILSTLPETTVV

`Cc1ccc(C(=O)N2CC[C@H](C(=O)Nc3cc(F)c(F)c(Cl)c3)[C@@H]2C)[nH]1` [Example 20, (2S,3S)—N-(3-chloro-4,5-difluorophenyl)-2-methyl-1-(5-methyl-1H-pyrrole-2-carbonyl) pyrrolidine-3-carboxamide]: the EC50 in data set [1] was more than 0.3 µM. The half-maximal cytotoxic concentration (CC50) at 6 days in data set [2] lay within 10 to 25 µM. Besides, the “Size of induced capsids based on SEC retention times” value (“Size of induced capsids based” for short) in data set [3] is “induced capsids similar in size to NVR 3-778”. For the same molecule, the activity at 1 µM in data set [4] is less than 45%.

Consider `C[C@H]1[C@@H](C(=O)Nc2cc(F)c(F)c(F)c2)CCN1C(=O)c1ccc(Cl)[nH]1` [Example 60, (2S,3S)-1-(5-chloro-1H-pyrrole-2-carbonyl)-2-methyl-N-(3,4,5-trifluorophenyl)pyrrolidine-3-carboxamide], for which the concentration for a half-maximal effect (EC50) in data set [1] fell in the range of 0.05 to 0.3 µM. In data set [2], the CC50 at 6 days is more than 25 µM. Moreover, the “Size of induced capsids based” value in data set [3] is “induced capsids similar in size to NVR 3-778”. Besides, the activity at 1 µM in data set [4] was less than 45%.

`Cc1cc(NC(=O)[C@H]2CCN(C(=O)c3ccc(-c4c(C)n[nH]c4C)[nH]3)C2)ccc1F` [Example 101, (S)-1-(5-(3,5-dimethyl-1H-pyrazol-4-yl)-1H-pyrrole-2-carbonyl)-N-(4-fluoro-3-methylphenyl)pyrrolidine-3-carboxamide]: the EC50 in data set [1] lay in the range of 0.05 to 0.3 µM. The CC50 at 6 days in data set [2] was more than 25 µM. Besides, in data set [3], the “Size of induced capsids based” value is listed as “induced capsids similar in size to NVR 3-778”. In addition, the activity at 1 µM in data set [4] is less than 45%.

In the case of `Cc1cc(NC(=O)[C@H]2CCN(C(=O)c3ccc(-c4ccnnc4)[nH]3)[C@H]2C)ccc1F` [Example 102, (2S,3S)—N-(4-fluoro-3-methylphenyl)-2-methyl-1-(5-(pyridazin-4-yl)-1H-pyrrole-2-carbonyl) pyrrolidine-3-carboxamide], in data set [1], the half-maximal effective concentration (EC50) is less than 0.05 µM. For the same molecule, the CC50 at 6 days in data set [2] is more than 25 µM. The “Size of induced capsids based” value in data set [3] was “induced capsids similar in size to NVR 3-778”. The same molecule came in with an activity at 1 µM in data set [4] of less than 45%.

With `Cc1cc(NC(=O)[C@H]2CCN(C(=O)c3ccc(-c4c(C)n[nH]c4C)[nH]3)[C@H]2C)ccc1F` [Example 103, (2S,3S)-1-(5-(3,5-dimethyl-1H-pyrazol-4-yl)-1H-pyrrole-2-carbonyl)-N-(4-fluoro-3-methylphenyl)-2-methylpyrrolidine-3-carboxamide], the EC50 in data set [1] is less than 0.05 µM. Further, the half-maximal cytotoxic concentration (CC50) at 6 days in data set [2] is 10 to 25 µM. Besides, the “Size of induced capsids based” value in data set [3] is given as “induced capsids similar in size to NVR 3-778”. In data set [4], this molecule displayed an activity at 1 µM of less than 45%.

Regarding `C[C@H]1[C@@H](C(=O)Nc2ccc(F)c(F)c2)CCN1C(=O)c1ccc(-c2ccnnc2)[nH]1` [Example 110, (2S,3S)—N-(3,4-difluorophenyl)-2-methyl-1-(5-(pyridazin-4-yl)-1H-pyrrole-2-carbonyl) pyrrolidine-3-carboxamide], the half-maximal effective concentration (EC50) in data set [1] was 0.05 to 0.3 µM. Moreover, the cytotoxic concentration (CC50) at 6 days in data set [2] was more than 25 µM. Also, in data set [3], the “Size of induced capsids based” value was “induced capsids similar in size to NVR 3-778”. The molecule further gave an activity at 1 µM in data set [4] of less than 45%.

For `Cc1ncnc(C)c1-c1ccc(C(=O)N2CC[C@H](C(=O)Nc3cc(F)c(F)c(F)c3)[C@@H]2C)[nH]1` [Example 111, (2S,3S)-1-(5-(4,6-dimethylpyrimidin-5-yl)-1H-pyrrole-2-carbonyl)-2-methyl-N-(3,4,5-trifluorophenyl)pyrrolidine-3-carboxamide], the 50% effective concentration (EC50) in data set [1] was less than 0.05 µM. The half-maximal cytotoxic concentration (CC50) at 6 days in data set [2] is less than 10 µM. For the same molecule, in data set [3], the “Size of induced capsids based” value is “induced capsids similar in size to NVR 3-778”. This molecule displayed an activity at 1 µM in data set [4] of less than 45%.

With `Cc1[nH]nc(C(F)(F)F)c1-c1ccc(C(=O)N2CC[C@H](C(=O)Nc3ccc(F)c(C#N)c3)[C@@H]2C)[nH]1` [Example 113, (2S,3S)—N-(3-cyano-4-fluorophenyl)-2-methyl-1-(5-(5-methyl-3-(trifluoromethyl)-1H-pyrazol-4-yl)-1H-pyrrole-2-carbonyl)pyrrolidine-3-carboxamide], the 50% effective concentration (EC50) in data set [1] was less than 0.05 µM. The CC50 at 6 days in data set [2] lay within 10 to 25 µM. In data set [3], the “Size of induced capsids based” value was “induced capsids similar in size to NVR 3-778”. The molecule further gave an activity at 1 µM in data set [4] of less than 45%.

Take `Cc1cc(NC(=O)[C@H]2CCN(C(=O)c3ccc(-c4c(C(F)(F)F)n[nH]c4C)[nH]3)C2)ccc1F` [Example 114]: in data set [1], the EC50 was less than 0.05 µM. Also, the CC50 at 6 days in data set [2] was 10 to 25 µM. Also, the “Size of induced capsids based” value in data set [3] is “induced capsids similar in size to NVR 3-778”. In data set [4], the activity at 1 µM was less than 45%.

For `Cc1cnnc(C)c1-c1ccc(C(=O)N2CC[C@H](C(=O)Nc3ccc(F)c(F)c3)C2)[nH]1` [Example 115, (S)—N-(3,4-difluorophenyl)-1-(5-(3,5-dimethylpyridazin-4-yl)-1H-pyrrole-2-carbonyl)pyrrolidine-3-carboxamide], in data set [1], the EC50 lay in the range of 0.05 to 0.3 µM. For the same molecule, in data set [2], the cytotoxic concentration (CC50) at 6 days is more than 25 µM. Moreover, the “Size of induced capsids based” value in data set [3] is “induced capsids similar in size to NVR 3-778”. This molecule also returned an activity at 1 µM in data set [4] of less than 45%.

On to `Cc1cc(NC(=O)[C@H]2CCN(C(=O)c3ccc(-c4c(C)cc[nH]c4=O)[nH]3)[C@H]2C)ccc1F` [Example 120, (2S,3S)—N-(4-fluoro-3-methylphenyl)-2-methyl-1-(5-(4-methyl-2-oxo-1,2-dihydropyridin-3-yl)-1H-pyrrole-2-carbonyl)pyrrolidine-3-carboxamide], for which the concentration for a half-maximal effect (EC50) in data set [1] fell in the range of 0.05 to 0.3 µM. In addition, the 50% cytotoxic concentration (CC50) at 6 days in data set [2] is more than 25 µM. For the same molecule, the “Size of induced capsids based” value in data set [3] is recorded as “induced capsids similar in size to NVR 3-778”. The molecule further showed an activity at 1 µM in data set [4] of less than 45%.

`Cc1cc2[nH]ncc2cc1-c1ccc(C(=O)N2CC[C@H](C(=O)Nc3cc(F)c(F)c(F)c3)C2)[nH]1` [Example 122, (S)-1-(5-(6-methyl-1H-indazol-5-yl)-1H-pyrrole-2-carbonyl)-N-(3,4,5-trifluorophenyl) pyrrolidine-3-carboxamide]: the concentration for a half-maximal effect (EC50) in data set [1] lay in the range of 0.05 to 0.3 µM. Also, the CC50 at 6 days in data set [2] was 10 to 25 µM. Further, the “Size of induced capsids based” value in data set [3] is on record as “induced capsids similar in size to NVR 3-778”. Further, in data set [4], the activity at 1 µM was less than 45%.

As to `Cc1cc2[nH]ncc2cc1-c1ccc(C(=O)N2CC[C@H](C(=O)Nc3ccc(F)c(C#N)c3)C2)[nH]1` [Example 123, (S)—N-(3-cyano-4-fluorophenyl)-1-(5-(6-methyl-1H-indazol-5-yl)-1H-pyrrole-2-carbonyl) pyrrolidine-3-carboxamide], the concentration for a half-maximal effect (EC50) in data set [1] is 0.05 to 0.3 µM. Moreover, the CC50 at 6 days in data set [2] lay in the range of 10 to 25 µM. Moreover, in data set [3], the “Size of induced capsids based” value is “induced capsids similar in size to NVR 3-778”. For the same molecule, the activity at 1 µM in data set [4] was less than 45%.

On to `Cc1cc(NC(=O)[C@H]2CCN(C(=O)c3ccc(-c4c(C)cn[nH]c4=O)[nH]3)[C@H]2C)ccc1F` [Example 125, (2S,3S)—N-(4-fluoro-3-methylphenyl)-2-methyl-1-(5-(5-methyl-3-oxo-2,3-dihydropyridazin-4-yl)-1H-pyrrole-2-carbonyl)pyrrolidine-3-carboxamide], for which, in data set [1], the EC50 was less than 0.05 µM. Also, the CC50 at 6 days in data set [2] was more than 25 µM. In data set [3], the “Size of induced capsids based” value is reported as “induced capsids similar in size to NVR 3-778”. The activity at 1 µM in data set [4] is less than 45%.

Turning to `Cc1c(-c2ccc(C(=O)N3CC[C@H](C(=O)Nc4cc(F)c(F)c(F)c4)C3)[nH]2)ccc2[nH]ncc12` [Example 128, (S)-1-(5-(4-methyl-1H-indazol-5-yl)-1H-pyrrole-2-carbonyl)-N-(3,4,5-trifluorophenyl) pyrrolidine-3-carboxamide], the 50% effective concentration (EC50) in data set [1] was 0.05 to 0.3 µM. In addition, the cytotoxic concentration (CC50) at 6 days in data set [2] is 10 to 25 µM. Further, the “Size of induced capsids based” value in data set [3] is reported as “induced capsids similar in size to NVR 3-778”. The activity at 1 µM in data set [4] was less than 45%.

For `Cc1ncnc(C)c1-c1ccc2c(Cl)c(C(=O)N3CC[C@H](C(=O)Nc4ccc(F)c(C#N)c4)[C@@H]3C)[nH]c2c1` [Example 138, (2S,3S)-1-(3-chloro-6-(4,6-dimethylpyrimidin-5-yl)-1H-indole-2-carbonyl)-N-(3-cyano-4-fluorophenyl)-2-methylpyrrolidine-3-carboxamide], the EC50 in data set [1] is 0.05 to 0.3 µM. Further, the CC50 at 6 days in data set [2] lay within 10 to 25 µM. Further, in data set [3], the “Size of induced capsids based” value is “capsid retention times between BAY 41-4109 and NVR 3-778”. In data set [4], this molecule displayed an activity at 1 µM of less than 45%.

The term EC50 denotes the concentration that produces a half-maximal response. One may read the CC50 as the concentration giving 50% cytotoxicity.

Values taken from patent US20230391752A1, “PYRROLIDINE-3-CARBOXAMIDE DERIVATIVES AND RELATED USES” (Chulalongkorn University, priority 2020, published 2023).
